Results reported in patent US20160067221A1, “USE OF ERGOTHIONEINE FOR INDUCING ACTIVITY OF NRF2 IN CELL” (China Medical University, priority 2014, published 2016).

System: Nrf2
Test: Ergothioneine-induced Nrf2 nuclear translocation after kinase inhibitor pretreatment (Western blot)
Type: cell-based, human
Details: inhibitor 2.5 μM 30 minutes, then 500 nM ergothioneine 1 hour
Method: Given that the ergothioneine can activate the Nrf2 to induce the expression of the downstream antioxidant genes; this example further investigates the pathway of the Nrf2 activated by the ergothioneine.
The HaCaT cells are incubated with respective pharmacological inhibitors of p38 (SB203580; 20 μM), ERK (PD98059; 20 μM), JNK (SP600125; 20 μM), PI3K (LY294002; 20 μM), PKC (GF109203X; 2.5 μM), or ROS (NAC; 1 mM) for 30 minutes, and then incubated with 500 nM ergothioneine for 1 hour. After the incubation, nuclear extracts and cytosolic extracts are collected to observe the expression of the Nrf2 nuclear translocation. FIG. 12 illustrates that the ergothioneine induces a Nrf2-mediated antioxidant signaling pathway. The data result is represented by mean±SD values; n=3, wherein * represents ρ<0.05 compared to the control group.

CN(C)CCCn1cc(C2=C(c3c[nH]c4ccccc34)C(=O)NC2=O)c2ccccc21 [GF109203X]
expression of the Nrf2 nuclear translocation: significantly inhibited
